In patent EP0728012B1, “NOVEL GnRH ANALOGUES WITH ANTITUMOUR EFFECTS AND PHARMACEUTICAL COMPOSITIONS THEREOF” (Lovas, Sandor, priority 1994, dated 1996):

Key:
[1] = test system: MCF-7; conditions: MCF-7; 30 µM active substance; conjugate, treated once; cell count on 7th day
Procedure: (§1) The procedure of treatment was as follows. After trypsinization the cells, 400,000 cells of MCF-7, MDA-MB-231 human mammary carcinoma, PC3 human prostate carcinoma or Ishikawa human endometrium tumour each were passed into Petri dishes of 10 cm in diameter. Starting from the day following transfer, the cells were treated with the substances to be tested in solution prepared with the nutrient medium during the exponential growth phase. […]

[2] = test system: MDA-MB-231; conditions: MDA-MB-231; 30 µM active substance; conjugate, treated once
Procedure: as §1

[3] = test system: cellular immune response; test: Cellular immune response (rosette formation against BRBC antigen); format: in vivo; conditions: mice; dose not stated
Excerpt: (§2) The immunosuppressive side effect of cytostatics used in tumour therapy is commonly known. This effect can be compensated to a certain grade by various immunostimulants (endotoxin, levamisole). Polypeptides with much […] molecular weights (about 40,000 to 80,000) are also capable of protecting against immunosuppressive effect [Gaál et al: J. Biol. Resp. Modif., 5, 148-159 (1986)]. The molecular weight of the novel polyanionic P-GFLG-OH macromolecule tested by us is about 10,000, that of MI-1892 is about 2000, i.e. relatively low; therefore, their immunostimulatory activity was unexpected.

[4] = test system: humoral immune response; test: Humoral immune response (antibody production of B-lymphocytes); format: in vivo; conditions: mice; dose not stated
Excerpt: as §2

[5] = test system: MDA-MB-231 xenograft; test: In vivo antitumour effect on MDA-MB-231 xenograft in immunosuppressed mice; parameters: species or system CBA/Ca mice; conditions: for tumour-free animals: end of the 6th week, first series
Procedure: The immunosuppression of mice was carried out by using the method of Steel et al. [Br. J. Cancer, 37, 224-230 (1978)]. Immunosuppression and xeno-transplantation
CBA-Ca female mice of about 6 weeks old were thymectomized and then, after one week, they were irradiated with 60Co (whole body irradiation; the lethal dose is 9.5 Gray). Within 24 hours 3 to 5 x 10^5 myelocytes were injected into the animals. Beneath the skin of the immunosuppressed mice 2 x 10^7 tumour cells or, in the case of later passages, […] were implanted. […] The treatment with steroid hormone was stopped by at least one week before beginning the investigation.
Recent investigations have begun on 28 animals bearing MCF-7 xenograft and on 28 animals bearing MDA-MB-231 xenograft. On animals bearing MCF-7 tumour the treatment was commenced in the 5th week following xeno-transplantation; the tumour volume was 205 to 225 mm^3. On animals bearing MDA-MB-231 tumour, the treatment was started in the 4th week after xeno-transplantation with a tumour volume of 140 to 150 mm^3. […] The control groups were daily treated with physiological saline s.c. (Each treated group consisting of 7 animals).
A more recent study was started on 28 animals bearing MDA-MB-231 xenograft. The treatment was begun in the 4th or 5th week following xenotransplantation. The tumour volume was 0.165 to 0.194 cm^3. […] (For treatment of the control group, see the preceding Examples). Each group consisted of 7 animals.

[6] = Castration effect: uterus weight of xenograft-bearing animals; format: in vivo, mice; conditions: animals bearing MCF-7 xenografts; treatment for four weeks
Excerpt: The castration effect is illustrated by the following data.

[7] = Table V, treatment week 2, conjugates 1x50 µg daily s.c.
[8] = Table V, treatment week 6, MI-1892 2x25 µg, conjugates 1x50 µg daily s.c.
[9] = week 0, daily s.c., P-GFLG-1544 1 x 50 µg, P-GFLG-1892 1 x 75 µg
[10] = week 1, daily s.c., P-GFLG-1544 1 x 50 µg, P-GFLG-1892 1 x 75 µg
[11] = week 2, daily s.c., P-GFLG-1544 1 x 50 µg, P-GFLG-1892 1 x 75 µg
[12] = week 3, daily s.c., P-GFLG-1544 1 x 50 µg, P-GFLG-1892 1 x 75 µg
[13] = week 4, daily s.c., P-GFLG-1544 1 x 50 µg, P-GFLG-1892 1 x 75 µg
[14] = week 5, daily s.c., P-GFLG-1544 1 x 50 µg, P-GFLG-1892 1 x 75 µg
[15] = week 6, daily s.c., P-GFLG-1544 1 x 50 µg, P-GFLG-1892 1 x 75 µg
[16] = MDA-MB-231 xenograft, after 9 week treatment, 100 µg daily s.c.
[17] = Table V, treatment week 2, 1x100 µg daily s.c.
[18] = Table V, treatment week 6, 1x100 µg daily s.c.
[19] = week 0, daily s.c., 1 x 100 µg series
[20] = week 1, daily s.c., 1 x 100 µg series
[21] = week 2, daily s.c., 1 x 100 µg series
[22] = week 3, daily s.c., 1 x 100 µg series
[23] = week 4, daily s.c., 1 x 100 µg series
[24] = week 5, daily s.c., 1 x 100 µg series
[25] = week 6, daily s.c., 1 x 100 µg series
[26] = week 7, daily s.c., 1 x 100 µg series

Ac-D-Trp^1,3,D-Cpa^2, {Lys[n-poly(N-vinyl pyrrolidone-co-maleic acid)-Gly-Phe-Leu-Gly-]}^5, [a-Asp(DEA)]^6, D-Ala^10-GnRH [P-GFLG-1892]
% Inhibition of cell division (proliferation) [1]: 45% | % Inhibition of cell division (proliferation) [2]: 42% | increase of the cellular immune response [3]: two-fold | increase of the humoral immune response [4]: possesses an immunostimulatory effect | tumour-free animals ([5]; MDA-MB-231 xenograft): A tumour-free animal was found | Inhibition % [5, 7]: 26.5% | Tumour volume as control (%) [5, 7]: 73.5% | Inhibition % [5, 8]: 44% | Tumour volume as control (%) [5, 8]: 56% | Tumour volume (cm^3) [5, 9]: 0.15 cm^3 | Tumour volume as control (%) [5, 9]: 100% | Tumour volume (cm^3) [5, 10]: 0.21 cm^3 | Tumour volume as control (%) [5, 10]: 84% | Tumour volume (cm^3) [5, 11]: 0.25 cm^3 | Tumour volume as control (%) [5, 11]: 79% | Tumour volume (cm^3) [5, 12]: 0.27 cm^3 | Tumour volume as control (%) [5, 12]: 74% | Tumour volume (cm^3) [5, 13]: 0.34 cm^3 | Tumour volume as control (%) [5, 13]: 81% | Tumour volume (cm^3) [5, 14]: 0.33 cm^3 | Tumour volume as control (%) [5, 14]: 75% | Tumour volume (cm^3) [5, 15]: 0.33 cm^3 | Tumour volume as control (%) [5, 15]: 58%

Ac-D-Trp^1,3,D-Cpa^2,{Lys(n-poly-(N-vinylpyrrolidone-co-maleic acid)-Gly-Phe-Leu-Gly]}^6,D-Ala^10-GnRH [P-GFLG-1544]
% Inhibition of cell division (proliferation) [1]: 58% | % Inhibition of cell division (proliferation) [2]: 45% | uterus weight [6]: 0.1149 ± 0.0110 g | animals that became tumour-free ([5]; MDA-MB-231 xenograft, 100 µg daily s.c., 6th week of treatment): 1 animals from 7 | Volume (cm^3) of tumours [5, 16]: 1.618 ± 0.518 cm^3 | Weight (g) of tumours [5, 16]: 0.94 ± 0.52 g | tumour-free animals ([5]; MDA-MB-231 xenograft): A tumour-free animal was found | Inhibition % [5, 17]: 29% | Tumour volume as control (%) [5, 17]: 71% | Inhibition % [5, 7]: 23.5% | Tumour volume as control (%) [5, 7]: 76.5% | Inhibition % [5, 18]: 53% | Tumour volume as control (%) [5, 18]: 47% | Inhibition % [5, 8]: 40% | Tumour volume as control (%) [5, 8]: 60% | Tumour volume (cm^3) [5, 19]: 0.17 cm^3 | Tumour volume as control (%) [5, 19]: 101% | Tumour volume (cm^3) [5, 9]: 0.15 cm^3 | Tumour volume as control (%) [5, 9]: 100% | Tumour volume (cm^3) [5, 20]: 0.24 cm^3 | Tumour volume as control (%) [5, 20]: 105% | Tumour volume (cm^3) [5, 10]: 0.21 cm^3 | Tumour volume as control (%) [5, 10]: 83% | Tumour volume (cm^3) [5, 21]: 0.3 cm^3 | Tumour volume as control (%) [5, 21]: 72% | Tumour volume (cm^3) [5, 11]: 0.21 cm^3 | Tumour volume as control (%) [5, 11]: 66% | Tumour volume (cm^3) [5, 22]: 0.36 cm^3 | Tumour volume as control (%) [5, 22]: 65% | Tumour volume (cm^3) [5, 12]: 0.24 cm^3 | Tumour volume as control (%) [5, 12]: 66% | Tumour volume (cm^3) [5, 23]: 0.35 cm^3 | Tumour volume as control (%) [5, 23]: 53% | Tumour volume (cm^3) [5, 13]: 0.28 cm^3 | Tumour volume as control (%) [5, 13]: 67% | Tumour volume (cm^3) [5, 24]: 0.46 cm^3 | Tumour volume as control (%) [5, 24]: 49% | Tumour volume (cm^3) [5, 14]: 0.33 cm^3 | Tumour volume as control (%) [5, 14]: 75% | Tumour volume (cm^3) [5, 25]: 0.58 cm^3 | Tumour volume as control (%) [5, 25]: 47% | Tumour volume (cm^3) [5, 15]: 0.36 cm^3 | Tumour volume as control (%) [5, 15]: 63% | Tumour volume (cm^3) [5, 26]: 0.75 cm^3 | Tumour volume as control (%) [5, 26]: 59%
